In US20240130988A1, “Use of stilbene compounds in the preparation of anti-tumor drugs” (Guangzhou AnHao Pharmaceutical Technology CO., LTD., priority 2022, published 2024):
Each block holds one compound with its values, some of them ahead of it.

Assays:
Assay type in all cases: in vivo
human lung cancer A549 = assay: Compound 8 combined with carboplatin, human lung cancer A549 xenograft in nude mice; settings: ip: carboplatin 10 mg/kg, compound 8 200 mg/kg, combination 10 + 200
Description: (§1) Experimental method: The model of human lung cancer A549 transplant tumor in nude mice was established by subcutaneously inoculating human lung cancer A549 cell lines into the armpits of nude mice. Cells were inoculated in an amount of 1×10^6, and after formation of the transplanted tumors by inoculation, the cells were passed 3 generations in nude mice before use. The vigorous growth of tumor tissue was cut into approximate 1.5 mm^3, and homogenized under sterile conditions, to prepare 1×10^7/mL of cell suspension. 0.1 mL of cell suspension was subcutaneously inoculated into the right armpit of nude mice. For transplanted tumors in nude mice, the diameter was measured with vernier caliper. After the tumor grew to 100 mm^3, the animals were randomly divided into groups, with 6 mice in each group. Using the method of measuring tumor diameter, the anti-tumor effect of test compound was dynamically Observed. Compound 8 was administered at 200 mg/kg by intraperitoneal injection, once every other day, for three weeks; carboplatin was administered at 10 mg/kg by intraperitoneal injection, once every other day, for three weeks. The measurement frequency of tumor diameter was once every three days. The dosage by volume was 0.1 mL/20 g. The mice in the negative control group were given an equal amount of physiological saline by intravenous injection. The effect of combined medicaments was evaluated based on the Q value calculated by Jin's formula: […]
Ea+b represents the tumor inhibitory rate of the combined medicaments, while Ea and Eb represent the tumor inhibitory rates of medicament A and medicament B, respectively. For example, the Q value of 0.85-1.15 means additive action (+), while the Q value of >1.15 means synergistic action (++).

[1] = tested on: human liver cancer Bel7404; assay: Compound 3 combined with lenvatinib, human liver cancer Bel7404 xenograft in nude mice; settings: po: lenvatinib 10 mg/kg, compound 3 400 mg/kg, combination 10 + 400
Description: Experimental method: The model of human liver cancer Bel7404 transplant tumor in nude mice was established by subcutaneously inoculating human liver cancer Bel7404 cell lines into the armpits of nude mice. Cells were inoculated in an amount of 1×10^6, and after formation of the transplanted tumors by inoculation, the cells were passed 3 generations in nude mice before use. The vigorous growth of tumor tissue was cut into approximate 1.5 mm^3, and homogenized under sterile conditions, to prepare 1×10^7/mL of cell suspension. 0.1 mL of cell suspension was subcutaneously inoculated into the right armpit of nude mice. For transplanted tumors in nude mice, the diameter of the transplanted tumor was measured with vernier caliper. After the tumor grew to 100 mm^3, the animals were randomly divided into groups, with 6 animals in each group. Using the method of measuring tumor diameter, the anti-tumor effect of test compound was dynamically observed. Compound 3 was orally administered at 400 mg/kg, once a day, for three weeks; lenvartinib was also orally administered at 10 mg/kg, once a day, for two weeks. The measurement frequency of tumor diameter was once every three days. The animals in the negative control group were orally given an equal amount of physiological saline. The effect of combined medicaments was evaluated based on the Q value calculated by the Jin's formula: […]
Ea+b represents the tumor inhibitory rate of the combined medicaments, while Ea and Eb represent the tumor inhibitory rates of medicament A and medicament B, respectively. For example, the Q value of 0.85-1.15 means additive action (+), and the Q value of >1.15 means synergistic action (++).

[2] = tested on: human gastric cancer SGC7901; assay: Compound 6 combined with paclitaxel, human gastric cancer SGC7901 xenograft in nude mice; settings: paclitaxel 10 mg/kg iv, compound 6 200 mg/kg ip, combination 10 + 200
Description: as §1, with “gastric” for “lung”, “SGC7901” for “A549”, “Using the method of measuring tumor diameter, the anti-tumor effect of test compound was dynamically Observed. Compound 8 was administered at 200 mg/kg by intraperitoneal injection, once every other day, for three weeks; carboplatin was administered at 10 mg/kg by intraperitoneal injection, once every other day, for three weeks.” left out
Ea+b represents the tumor inhibitory rate of the combined medicaments, while Ea and Eb represent the tumor inhibitory rates of medicament A and medicament B, respectively.

SMILES: N.N.O=C([O-])C1(C(=O)[O-])CCC1.[Pt+2] [Carboplatin]
RTV (d 21) (human lung cancer A549): 6.63 ± 1.42
Terminal weight (human lung cancer A549): 21.5 ± 0.9 g
Tumor inhibitory rate % (human lung cancer A549): 48.48%

Terminal weight [1]: 21.8 ± 0.7 g
SMILES: COc1cc2nccc(Oc3ccc(NC(=O)NC4CC4)c(Cl)c3)c2cc1C(N)=O [Lenvatinib, reference compound]
RTV (d 21) [1]: 3.89 ± 1.46
Tumor inhibitory rate % [1]: 65.36%

Terminal weight [2]: 21.7 ± 0.6 g
SMILES: CC(=O)O[C@H]1C(=O)[C@@]2(C)[C@H]([C@H](OC(=O)c3ccccc3)[C@]3(O)C[C@H](OC(=O)[C@H](O)[C@@H](NC(=O)c4ccccc4)c4ccccc4)C(C)=C1C3(C)C)[C@]1(OC(C)=O)CO[C@@H]1C[C@@H]2O [Paclitaxel, reference compound]
RTV (d 21) [2]: 7.37 ± 1.76
Tumor inhibitory rate % [2]: 45.49%
